# Assay results reported in patent US9675592B2, “Methods and compositions for bacteria infections” (priority 2013, dated 2017).
# What was measured:
# [1] = system: vraSR promoter (Pvra-lux reporter in strain 923); assay: Primary screen, relative luminescence (vraSR expression); settings: primary screen, compound 10 μM with oxacillin 2 μg/mL; <0.50 = vraSR repressed = hit
# [2] = system: test strain 923 pPvra-lux (USA300 MRSA); assay: Primary screen, relative growth in presence of oxacillin; settings: compound 10 μM with oxacillin 2 μg/mL, absorbance 24 h, <0.50 = dead cells = hit
SMILES,RL avg (relative luminescence) [1],RG avg (relative growth) [2]
Cc1ccc(C)c(-c2nnc(NC(=O)c3ccc4c(c3)CCCC4)o2)c1 [F2518-373],−0.05,0.05
COc1cc(-c2nnc(NC(=O)c3ccc(S(=O)(=O)N4CCc5ccccc5C4)cc3)o2)cc(OC)c1OC [F0559-321],−0.09,−0.03
O=C(Nc1nnc(-c2ccc(Br)cc2)o1)c1ccc2ncsc2c1 [F2518-558],−0.08,−0.02
COc1ccc(-c2nnc(NC(=O)c3cccc(C(F)(F)F)c3)o2)c(OC)c1 [F1374-562],0.38,0.02
CC1CC(C)CN(S(=O)(=O)c2ccc(C(=O)Nc3nnc(-c4ccc(Cl)s4)o3)cc2)C1 (stereo not drawn) [F0559-376],−0.02,−0.08
COc1cc(-c2nnc(NC(=O)c3cccc(Br)c3)o2)cc(OC)c1OC [F2517-14],−0.07,−0.03
CCN(Cc1ccccc1)S(=O)(=O)c1ccc(C(=O)Nc2nnc(-c3ccc(OC)cc3)o2)cc1 [F0559-206],−0.11,0.19
Cc1ccc(C)c(-c2nnc(NC(=O)c3cccc(Br)c3)o2)c1 [F2518-303],−0.02,0.00
Cc1ccc(-c2nnc(NC(=O)c3cccc(C(F)(F)F)c3)o2)c(C)c1 [F2518-189],−0.02,0.01
CCOc1cccc2cc(-c3nnc(NC(=O)c4sc5ccccc5c4Cl)o3)oc12 [F2273-238],0.19,0.26
O=C(Nc1nnc(-c2ccco2)o1)c1cc(-c2ccccc2)nc2ccccc12 [F0608-448],−0.04,0.19
O=C(Nc1nnc(-c2cc3ccccc3o2)o1)c1nc2ccccc2s1 [F2273-415],0.22,0.27
COc1ccc(-c2nnc(NC(=O)c3ccc(Br)s3)o2)cc1 [F1374-455],0.33,0.03
O=C(Nc1nnc(-c2ccc(Br)cc2)o1)c1ccc(Oc2ccccc2)cc1 [F2518-534],0.04,0.01
O=C(Nc1nnc(C2COc3ccccc3O2)o1)c1ccc(S(=O)(=O)N2CCCc3ccccc32)cc1 (stereo not drawn) [F0608-715],−0.05,−0.01
COC(=O)c1ccc(C(=O)Nc2nnc(-c3ccccc3Cl)o2)cc1 [F1374-55],0.47,0.28
COC(=O)c1ccc(C(=O)Nc2nnc(-c3cc(C)ccc3C)o2)cc1 [F2518-355],−0.04,−0.01
O=C(Nc1nnc(-c2ccc(Cl)s2)o1)c1cc(-c2ccccc2)nc2ccccc12 [F1374-1094],0.52,0.03
O=C(Nc1nnc(-c2ccc(F)cc2)o1)c1ccc(F)cc1 [F1374-116],0.34,0.00
O=C(Nc1nnc(-c2ccc(Cl)s2)o1)c1ccc(Cl)cc1 [F1374-1055],0.50,0.02

SMILES,RL avg (relative luminescence) [1],RG avg (relative growth) [2]
Cc1cccc(C(=O)Nc2nnc(-c3ccc(Br)cc3)o2)c1 [F2518-436],−0.06,0.00
CCOc1cc(C(=O)Nc2nnc(-c3ccccc3SC)o2)cc(OCC)c1OCC [F2645-99],0.43,0.09
O=C(Nc1nnc(-c2cc3ccccc3o2)o1)c1ccc2ncsc2c1 [F2273-492],0.24,0.25
COc1cccc2cc(-c3nnc(NC(=O)c4ccc(S(=O)(=O)N(C)C)cc4)o3)oc12 [F2273-29],0.29,0.16
O=C(Nc1nnc(-c2ccc3c(c2)CCCC3)o1)c1sc2ccccc2c1Cl [F0608-665],−0.01,0.19
O=C(Nc1nnc(-c2ccc(Cl)s2)o1)c1cccc(F)c1 [F1374-1062],0.46,0.01
Cc1ccc(-c2nnc(NC(=O)c3ccc(Cl)s3)o2)c(C)c1 [F2518-186],−0.09,0.01
COc1cccc(-c2nnc(NC(=O)c3ccc(S(=O)(=O)N4CCc5ccccc5C4)cc3)o2)c1 [F0559-171],−0.11,−0.06
COc1cccc2cc(C(=O)Nc3nnc(-c4cc(Cl)sc4Cl)o3)oc12 [F1374-2680],0.42,0.00
O=C(Nc1nnc(-c2cc(Cl)ccc2Cl)o1)c1nc2ccccc2s1 [F2518-39],−0.07,−0.01
COc1cccc2cc(-c3nnc(NC(=O)c4nc5ccccc5s4)o3)oc12 [F2273-37],0.09,0.09
O=C(Nc1nnc(-c2ccc(Br)cc2)o1)c1cccc(C(F)(F)F)c1 [F2518-477],0.03,0.01
Cc1onc(-c2ccccc2Cl)c1C(=O)Nc1nnc(-c2cc(Cl)sc2Cl)o1 [F1374-2706],0.25,0.02
Cc1ccc(C)c(-c2nnc(NC(=O)c3cc(Cl)sc3Cl)o2)c1 [F2518-360],0.13,0.04
O=C(Nc1nnc(-c2ccccc2)o1)c1ccc(Br)s1 [F1374-875],0.30,0.04
CC1CN(S(=O)(=O)c2ccc(C(=O)Nc3nnc(-c4ccc(F)cc4)o3)cc2)CC(C)O1 (stereo not drawn) [F0559-107],−0.06,−0.05
CCN(CC)S(=O)(=O)c1ccc(C(=O)Nc2nnc(-c3ccc4c(c3)CCCC4)o2)cc1 [F0608-543],−0.08,−0.02
O=C(Nc1nnc(-c2ccc(Br)s2)o1)c1ccc2ncsc2c1 [F5093-111],−0.02,−0.02
COc1ccccc1-c1nnc(NC(=O)c2cccc(Br)c2)o1 [F1374-224],0.34,−0.01
COc1ccccc1-c1nnc(NC(=O)c2ccc(-c3ccccc3)cc2)o1 [F1374-220],0.35,0.01

SMILES,RL avg (relative luminescence) [1],RG avg (relative growth) [2]
O=C(Nc1nnc(-c2ccc3c(c2)CCCC3)o1)c1cc(Cl)sc1Cl [F0608-668],−0.06,0.02
COc1cccc(-c2nnc(NC(=O)c3cccc(C(F)(F)F)c3)o2)c1 [F1374-352],0.41,0.03
Cc1ccc(-c2nnc(NC(=O)c3ccc(Cl)cc3Cl)o2)c(C)c1 [F2518-166],−0.10,−0.02
Cc1ccc(-c2nnc(NC(=O)c3ccc(S(=O)(=O)N4CCCCC4C)cc3)o2)c(C)c1 (stereo not drawn) [F2518-228],−0.14,0.00
C=CCN(CC=C)S(=O)(=O)c1ccc(C(=O)Nc2nnc(-c3cc(OC)c(OC)c(OC)c3)o2)cc1 [F0559-279],−0.09,0.40
CC1CC(C)CN(S(=O)(=O)c2ccc(C(=O)Nc3nnc(-c4ccc(F)cc4)o3)cc2)C1 (stereo not drawn) [F0559-106],−0.07,−0.07
COc1cccc(-c2nnc(NC(=O)c3ccc(S(=O)(=O)N(Cc4ccccc4)C(C)C)cc3)o2)c1 [F0559-178],−0.07,−0.06
COc1cccc2cc(-c3nnc(NC(=O)c4cccc(F)c4)o3)oc12 [F2273-13],−0.06,−0.03
O=C(Nc1nc(-c2ccccn2)cs1)c1cc(Cl)ccc1Cl [F0447-277],−0.11,−0.06
O=C(Nc1nnc(-c2ccc3c(c2)CCCC3)o1)c1cccs1 [F0608-554],−0.08,−0.04
O=C(Nc1nnc(-c2cccs2)o1)c1cccc(C(F)(F)F)c1 [F1374-982],0.35,0.13
O=C(Nc1nnc(-c2cc(Cl)sc2Cl)o1)c1ccc(F)cc1F [F1374-2707],0.32,0.00
O=C(Nc1nnc(-c2ccc(F)cc2)o1)c1ccc(Oc2ccccc2)cc1 [F1374-188],0.33,0.02
O=C(Nc1nnc(-c2cc(Cl)sc2Cl)o1)c1cccc(C(F)(F)F)c1 [F1374-2671],0.35,0.03
O=C(Nc1nnc(-c2cc(Cl)ccc2Cl)o1)c1ccc(Br)s1 [F2518-41],−0.03,0.00
O=C(COc1ccc(Cl)cc1)Nc1nnc(-c2ccc3c(c2)CCCC3)o1 [F0608-664],−0.01,−0.04
O=C(Nc1nnc(-c2ccc(Cl)cc2)o1)c1ccc2ncsc2c1 [F1374-836],0.31,−0.01
O=C(Nc1nnc(-c2cc3ccccc3o2)o1)c1cccc(Cl)c1 [F2273-385],0.16,0.28
CSc1ccc(-c2nnc(NC(=O)c3ccc4c(c3)CCCC4)o2)cc1 [F2645-379],0.37,0.04
Cc1ccc(Cc2nnc(NC(=O)c3ccc(S(=O)(=O)N(C)c4ccccc4)cc3)o2)c(C)c1 [F2368-431],−0.06,−0.02
